Measurements taken from patent US20230165835A1, “METHODS OF TREATING ACUTE LUNG INJURY USING EBSELEN” (SOUND PHARMACEUTICALS INC., priority 2020, published 2023).

Experiments:
[1] = tested on: SARS-CoV-2; assay: Hamster model of SARS-CoV-2 disease transmission and progression, viral load (PFU); assay type: in vivo, Golden Syrian Hamsters; conditions: 15 mg/kg
Description: 24 hours prior to nasal inoculation with SARS-CoV-2, Golden Syrian Hamsters were dosed with ebselen, saline and remdesivir at 15 mg/kg. Samples were taken from nares (PFU/swab) on days 1, 2 and 3, and from the nasal turbinates and cranial & caudal lung tissue (PFU/100 mg) on day 7.

[2] = tested on: SARS-CoV-2; assay: Reduction of SARS-CoV-2 viral load in Vero E6 cells (image based assay of Jin et al.); assay type: cell-based; conditions: Severe acute respiratory syndrome coronavirus 2, Vero C1008, read-out: EC50, reduction in viral load in Vero E6 cells, SARS-CoV-2; ebselen 100 nM to 1000 μM in DMSO or EtOH, remdesivir 1 nM to 10 μM
[3] = tested on: Vero E6 cells; assay: Cytotoxicity / cell viability in Vero E6 cells; assay type: cell-based; conditions: ebselen: at ranges slightly higher than EC50
[4] = human, in vivo, iv

## CCC(CC)COC(=O)[C@H](C)N[P@](=O)(OC[C@H]1O[C@@](C#N)(c2ccc3c(N)ncnn23)[C@H](O)[C@@H]1O)Oc1ccccc1 [remdesivir]
[1]; 24 hours prior to nasal inoculation, saline 2.7E+04
  PFU/swab (nares) Day 1: 1.1E+04 PFU/swab
[1]; 24 hours prior to nasal inoculation, saline 5.5E+02
  PFU/swab (nares) Day 3: 3.8E+03 PFU/swab
[1]; 24 hours prior to nasal inoculation, saline 7.5E+03
  PFU/swab (nares) Day 2: 3.1E+03 PFU/swab
[1]; day 7, saline 4.9E+06
  PFU/100 mg Cranial lung: 4.4E+06 PFU/100 mg
[1]; day 7, saline 5.5E+07
  PFU/100 mg Turbinates: 4.0E+02 PFU/100 mg
[1]; day 7, saline 6.1E+06
  PFU/100 mg Caudal lung: 1.2E+07 PFU/100 mg
[2]
  EC50: 7 µM
[3]
  effect on cell viability: no effect on cell viability

## NC[C@H]1O[C@H](O[C@H]2[C@H](O)[C@@H](O[C@H]3O[C@H](CO)[C@@H](O)[C@H](N)[C@H]3O)[C@H](N)C[C@@H]2N)[C@H](N)C[C@@H]1O [tobramycin]
[4]; 4 weeks
  % Responders (Bilateral), Conv + SRO: 33%
  % Responders (Bilateral), Conventional: 0%
  % Responders (Bilateral), DPOAE: 40%
  % Responders (Bilateral), SRO: 33%
  % Responders (Bilateral), WINT: 7%
  % Responders (Unilateral), Conv + SRO: 60%
  % Responders (Unilateral), Conventional: 27%
  % Responders (Unilateral), DPOAE: 40%
  % Responders (Unilateral), SRO: 53%
  % Responders (Unilateral), WINT: 33%
  % Responders, Conv + SRO: 93%
  % Responders, DPOAE: 80%
  % Responders, SRO: 87%
  % Responders, TFI: 8%
  % Responders, TL: 15%
  % Responders, VSS: 8%
  % Responders, WINT: 40%
[4]; 4 weeks post-treatment
  % Responders, Conventional: 27%
